Source: patent US10173999B2, “Cyclic amine derivative and pharmaceutical use thereof” (Toray Industries, Inc., priority 2015, dated 2019)
Structures can show the parent of a compound that is named as a salt.

Test system: mouse partial sciatic nerve ligation model (neuropathic pain)
Assay: Mouse partial sciatic nerve ligation model (Seltzer model), von Frey test
Assay type: in vivo
Details: for dose from which a statistically significant analgesic action started / persistence of analgesic action / time of strongest analgesic action after oral administration: oral administration; for dose from which a statistically significant analgesic action started: von Frey test; for persistence of analgesic action / time of strongest analgesic action after oral administration: von Frey test at 1, 2, 3 h
Experimental: The mouse partial sciatic nerve ligation model was prepared in accordance with the method of Seltzer et al. (Malmberg et al., Pain, vol. 76, p. 215-222, 1998).
Slc: ICR mice (5 weeks old, male; from Japan SLC, Inc.) or Cr1: CD1 (ICR) mice (5 weeks old, male; from CHARLES RIVER LABORATORIES JAPAN, INC.) were anesthetized with sodium pentobarbital (70 mg/kg, intraperitoneal administration). The sciatic nerve at the femoral region of the right hind paw of each mouse was exposed and triply ligated tightly with silk suture of 8-0 (from NATSUME SEISAKUSHO CO., LTD.) under a stereomicroscope so that only half thickness of the nerve was trapped in the ligature. A group of mice thus treated was designated as a partial sciatic nerve ligation group. A group of mice whose sciatic nerve was just exposed and not ligated was designated as a sham surgery group.
Evaluation of neuropathic pain (hereinafter referred to as von Frey test) was performed as follows. Mice were conditioned for at least one hour in an acrylic cage for measurement (from NATSUME SEISAKUSHO CO. LTD. or SHINANO SEISAKUSHO) placed on a wire net. Thereafter, using a filament (from North Coast Medical or neuroscience) which exerted a pressure of 0.16 g, the mice were subjected to mechanical tactile stimulus by applying the filament to the plantar surface of the right hind paw 3 times, each for 3 seconds, with an interval of 3 seconds.
Seven days after the sciatic nerve ligation surgery, the compound of Example 1, 2, 3, 4, 5, 7, 8, 9, 10, 11, 12 or 13 (10 mg/kg for each of the compounds of Example 1, 2, 3, 4, 5, 8, 10 and 13, 0.01 to 1 mg/kg for the compound of Example 7, 0.01 to 10 mg/kg for the compound of Example 9; 0.001 to 0.1 mg/kg for the compound of Example 11; and 0.01 to 1 mg/kg for the compound of Example 12) or pregabalin as a positive control (10 mg/kg; Bosche Scientific) was dissolved in distilled water and orally administered to mice of the partial sciatic nerve ligation group. The groups of the mice in the partial sciatic nerve ligation mouse to which the compound of Example 1, 2, 3, 4, 5, 7, 8, 9, 10, 11, 12 or 13 was administered were designated as a “partial sciatic nerve ligation+the compound of Example 1” group; a “partial sciatic nerve ligation+the compound of Example 2” group; a “partial sciatic nerve ligation+the compound of Example 3” group; a “partial sciatic nerve ligation+the compound of Example 4” group; a “partial sciatic nerve ligation+the compound of Example 5” group; a “partial sciatic nerve ligation+the compound of Example 7” group; a “partial sciatic nerve ligation+the compound of Example 8” group; a “partial sciatic nerve ligation+the compound of Example 9” group; a “partial sciatic nerve ligation+the compound of Example 10” group; a “partial sciatic nerve ligation+the compound of Example 11” group; a “partial sciatic nerve ligation+the compound of Example 12” group; and a “partial sciatic nerve ligation+the compound of Example 13” group, respectively. The partial sciatic nerve ligation mouse group to which pregabalin was administered was designated as a “partial sciatic nerve ligation+pregabalin” group. A group wherein distilled water was orally administered to the mice of the partial sciatic nerve ligation group was designated as a “partial sciatic nerve ligation+distilled water” group. A group wherein distilled water was orally administered to the mice of the sham surgery group was designated as a “sham surgery+distilled water” group.
The von Frey test was carried out before oral administration of a test compound (pre-value), one hour, two hours, and three hours after the oral administration of a test compound.
Slc: ICR mice (5 weeks old, male; Japan SLC, Inc.) were anesthetized with sodium pentobarbital (70 mg/kg, intraperitoneal administration).

Compound | time the analgesic action lasted after oral administration (dose of 0.1 mg/kg) [h] | time the analgesic action lasted after oral administration (from a dose of 0.001 mg/kg) [h] | analgesic action in von Frey test (total score) (mouse, in vivo) | dose from which a statistically significant analgesic action started [µg/kg] | persistence of analgesic action | time of strongest analgesic action after oral administration
CN(C)C1CCN(C(=O)C[C@H](O)c2nccn2C)CC1 [Example 11, (S)-1-(4-(dimethylamino)piperidin-1-yl)-3-hydroxy-3-(1-methyl-1H-imidazol-2-yl)propan-1-one] | 3 | 2 | statistically significant analgesic action | 1 |  | 
CC(C)n1ccnc1CCC(=O)N1CCC(N(C)C)CC1 [Comparative Example 6, 1-(4-(dimethylamino)piperidin-1-yl)-3-(1-isopropyl-1H-imidazol-2-yl)propan-1-one hydrochloride] |  |  |  |  | tended to decrease 2 hours and 3 hours later | one
CN(C)C1CCN(C(=O)CCc2nccn2C)CC1 [Comparative Example 1, 1-(4-(dimethylamino)piperidin-1-yl)-3-(1-methyl-1H-imidazol-2-yl)propan-1-one hydrochloride] |  |  |  | 10 | tended to decrease 2 hours and 3 hours later | one
